Entries after “also recorded” stand apart in the source; their conditions may differ.
Experiments:
NF-κB = test: EMSA for NF-κB on nuclear extracts from pancreatic tissue; type: in vivo, rat; settings: for NF-κB activation in the pancreas: rat
Experimental: Specifically, aliquots of nuclear extracts with equal amounts of protein (about 2 to about 10 mg) were mixed in 20 μl reactions with a buffer containing 10 mM HEPES (pH 7.8), 50 mM KCl, 0.1 mM EDTA, 1 mM DTT, 10% (vol/vol) glycerol, and 3 μg of poly(dI-dC).
The samples were electrophoresed at room temperature in 0.5×TBE buffer (1× TBE: 89 mM Tris base, 89 mM boric acid, 2 mM EDTA) on a non-denaturing 4.5% polyacrylamide gel at 200 V. The gels were dried and directly analyzed in the PhosphorImager (Molecular Dynamics, Sunnyvale, Calif.).
Nuclear protein extracts were prepared by methods known in the art. […] Briefly, samples of pancreatic tissue or isolated acini were rinsed in ice-cold PBS and homogenized in hypotonic Buffer A (20 mM β-glycerophosphate, 10 mM HEPES, pH 7.6, 1.5 mM MgCl2, 10 mM KCl, 10 mM Na2MoO4, 0.1 mM Na3VO4, 1 mM dithiothreitol (DTT), 1 mM phenylmethylsulfonyl fluoride (PMSF), 5 μg/ml each of protease inhibitors pepstatin, leupeptin, chymostatin, antipain and aprotinin). After incubating on ice for about 20 to about 25 minutes, the nonionic detergent Igepal CA-630 (Sigma, St. Louis, Mo.) was added to a final concentration of 0.3 to 0.4% (v/v), followed by an additional incubation on ice for about 1 to about 2 minutes. The crude nuclear pellet was collected by microcentrifugation for 30 seconds. The supernatant (cytosolic protein) was removed, and the nuclear pellet was resuspended in the high-salt buffer C (25% glycerol, 20 mM β-glycerophosphate, 10 mM HEPES, 1.5 mM MgCl2, 420 mM NaCl, 0.2 mM EDTA, 10 mM Na2MoO4, 0.1 mM Na3VO4, 1 mM DTT, 1 mM PMSF, 5 μg/ml each of protease inhibitors pepstatin, leupeptin, chymostatin, antipain and aprotinin. After rotating at 4° C. for up to 1 hour, nuclear membranes were pelleted by microcentrifugation for 10 minutes, and the clear supernatant (nuclear extract) was aliquoted and stored at −80° C. Protein concentration in the nuclear extract was determined by the Bio-Rad protein assay (Bio-Rad Laboratories, Hercules, Calif.).

pancreatic acinar cells = test: LDH release from pancreatic acinar cells; type: cell-based, rat; settings: 100 μM curcumin, control acinar cells or cells stimulated with 100 nM CCK-8
CCK receptor = biological target: T1, CCK receptor (Rattus norvegicus, UniProt P30551); test: In vivo pancreatic secretion assay
T1 construct: from tissue; host or cells: living rat, pancreas (acinar cells)
T1 sequence (P30551 1-444): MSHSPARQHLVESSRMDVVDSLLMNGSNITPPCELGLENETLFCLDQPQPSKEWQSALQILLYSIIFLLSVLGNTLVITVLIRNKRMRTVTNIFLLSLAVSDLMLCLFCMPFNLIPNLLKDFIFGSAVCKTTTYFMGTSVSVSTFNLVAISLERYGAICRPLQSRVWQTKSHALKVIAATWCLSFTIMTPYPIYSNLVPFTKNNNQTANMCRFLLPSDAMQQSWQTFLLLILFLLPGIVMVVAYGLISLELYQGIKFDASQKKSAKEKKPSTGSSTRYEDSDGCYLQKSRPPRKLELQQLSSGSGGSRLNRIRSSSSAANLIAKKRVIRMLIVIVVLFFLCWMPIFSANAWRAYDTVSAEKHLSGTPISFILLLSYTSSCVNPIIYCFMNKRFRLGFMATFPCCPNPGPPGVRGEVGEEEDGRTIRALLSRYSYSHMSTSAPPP
Experimental: To rule out the possibility that the effect of curcumin was through inhibition of the action of cerulein or CCK-8 on CCK receptor activation, the effect of pancreatic secretion was tested.
Pancreatic secretion in test rats was measured in vivo by methods known in the art. See Gukovskaya A S, et al. (2002). Briefly, biliopancreatic secretion was allowed to drain freely for 30 minutes before initiation of the experiment. Then secretion was collected in tubes in 10-minute fractions to determine the basal amylase output, after which 0.25 μg/kg cerulein was given as an i.v. bolus and collection continued for 40 minutes in a similar manner. Collection volumes were measured by weigh, and the amylase output was calculated by determining amylase concentration in the collected fractions. The mean amylase output obtained from two consecutive 10-minute fractions after the stabilization period was taken as the basal secretion and considered as 100%. The results were expressed as percentage increase over basal amylase output 40 minutes after cerulein or vehicle infusion.

caspase-3 = test: Caspase-3-like (DEVDase) activity in pancreatic tissue lysates; type: in vivo, rat; settings: for Caspase-3-like (DEVDase) activity versus pancreatitis without curcumin: p<0.05; for augmentation of the increase in DEVDase activity: rat pancreas
Experimental: […] activity was measured by methods known in the art. See Gukovskaya A S, et al. (2002). Briefly, samples of pancreatic tissue were rinsed with ice-cold PBS and homogenized in a lysis buffer comprising 150 mM NaCl, 50 mM Tris-HCL (pH 7.5), 0.5% Igepal CA-630 (Sigma, St. Louis, Mo.), and 0.5 mM EDTA. Lysates were centrifuged for 10 minutes at 16,000× g and the supernatants were collected. Caspase activity was determined at 37° C. in a buffer comprising 25 mM HEPES (pH 7.5), 10% sucrose, 0.1% CHAPS, 10 mM DTT and […] Ac-DEVD-AMC, a specific fluorogenic substrate for measurement of caspase-3-like activity (AnaSpec, San Jose, Calif.). Cleavage of the substrate releases AMC that emits a fluorescent signal with excitation at 380 nm and emission at 440 nm. Fluorescence was calibrated using a standard curve for AMC. The data were expressed as mol AMC/min/mg protein.

isolated acinar cells = test: Amylase secretion in isolated acinar cells; type: cell-based, rat; settings: 100 μM curcumin, versus absence
Experimental: The effect of curcumin on amylase secretion in isolated acinar cells was assayed. Specifically, acinar cells were isolated using a collagenase digestion technique known in the art. Animals were sacrificed with CO2. The pancreas was removed and trimmed from mesentary and fat. […]
Amylase secretion was measured. […] Amylase activity was measured in each supernatant sample as well as the cellular sample and values for amylase release were calculated as the percentage of amylase activity in the cells at the beginning of the experiment that was release into the media during the experiment.
The absorbance was read with a spectrophotometer at 405 nm at 37° C. and the amylase activity in the samples was calculated by subtracting initial from the final readings. […]

Compound: COc1cc(/C=C/C(=O)CC(=O)/C=C/c2ccc(O)c(OC)c2)ccc1O [curcumin]
- NF-κB activation in the pancreas (NF-κB; cerulein pancreatitis): inhibits; also recorded: attenuated
- NF-κB activity in the pancreas of control rats (NF-κB; control (vehicle-infused) rats treated with curcumin): Virtually no NF-κB activity was detected
- NF-κB activation in the pancreas (NF-κB; ethanol/CCK pancreatitis): inhibits
- LDH release (pancreatic acinar cells): did not cause additional LDH release
- effect on cerulein/CCK-induced pancreatic secretion in vivo (CCK receptor; rat, versus without curcumin): not statistically different; also recorded: did not appear to have an effect
- cerulein-induced amylase secretion, of the basal amylase output (CCK receptor; rats treated with curcumin, 0.25 μg/kg cerulein i.v. bolus, 40 min, n=4): 1000±37%
- Caspase-3-like (DEVDase) activity versus pancreatitis without curcumin (caspase-3; EtOH+CCK pancreatitis): significantly higher
- augmentation of the increase in DEVDase activity (caspase-3; EtOH+CCK pancreatitis): greater than 2 fold
- Caspase-3-like (DEVDase) activity versus pancreatitis without curcumin (caspase-3; cerulein pancreatitis): significantly higher
- augmentation of the increase in DEVDase activity (caspase-3; cerulein pancreatitis): greater than 2 fold
- amylase release elicited by maximal (1 nM) and supramaximal (100 nM) CCK-8 (isolated acinar cells): the same
